From ChEMBL document CHEMBL5303304, “EUbOPEN Chemogenomics Library - IncuCyte” (2023)

What was measured:
Assay type in all cases: toxicity, cell-based
U2OS = experiment: Incucyte cell viability with U2OS; conditions: human, 10 µM, compound concentration 10 uM
HEK-293T = experiment: Incucyte cell viability with HEK293T; conditions: human, 10 µM, compound concentration 10 uM
Fibroblast = experiment: Incucyte cell viability with human fibroblast; conditions: 10 µM, compound concentration 10 uM
Further: unitless GR value; below 1 slowed growth and below 0 cell loss.

| Structure (SMILES) | Growth Rate (U2OS; 0 h, replicate number 1) | Growth Rate (U2OS; 6 h, replicate number 1) | Growth Rate (U2OS; 6 h, replicate number 2) | Growth Rate (U2OS; 12 h, replicate number 1) | Growth Rate (U2OS; 12 h, replicate number 2) | Growth Rate (U2OS; 18 h, replicate number 1) | Growth Rate (U2OS; 18 h, replicate number 2) | Growth Rate (U2OS; 24 h, replicate number 1) | Growth Rate (HEK-293T; 0 h, replicate number 1) | Growth Rate (HEK-293T; 0 h, replicate number 2) | Growth Rate (HEK-293T; 18 h, replicate number 1) | Growth Rate (Fibroblast; 0 h, replicate number 1) | Growth Rate (Fibroblast; 6 h, replicate number 1) | Growth Rate (Fibroblast; 6 h, replicate number 2) | Growth Rate (Fibroblast; 12 h, replicate number 2) | Growth Rate (Fibroblast; 18 h, replicate number 2) | Growth Rate (Fibroblast; 24 h, replicate number 2) | Growth Rate (Fibroblast; 18 h, replicate number 1) | Growth Rate (Fibroblast; 24 h, replicate number 1) | Growth Rate (Fibroblast; 0 h, replicate number 2) | further results |
| --- | --- | --- | --- | --- | --- | --- | --- | --- | --- | --- | --- | --- | --- | --- | --- | --- | --- | --- | --- | --- | --- |
| C[C@@H](CN1CC[C@@]2(C)c3cccc(O)c3C[C@@H]1C2(C)C)OCc1ccccc1.Cl | -0.32 | 0.53 | 0.85 | 0.61 | 0.78 | 0.81 | 0.98 | 0.79 | 0.44 | -0.22 | 0.77 | -1 | 0.03 | -0.28 | 0.93 | 1 | 0.98 |  |  |  | Growth Rate (HEK-293T; 6 h, replicate number 1): 0.31; Growth Rate (HEK-293T; 12 h, replicate number 1): 0.74; Growth Rate (HEK-293T; 18 h, replicate number 2): 0.95; Growth Rate (HEK-293T; 24 h, replicate number 1): 0.8; Growth Rate (HEK-293T; 24 h, replicate number 2): 0.96 |
| CN1C(=O)Cc2ccc(-c3ccc(C[C@@H](C#N)NC(=O)[C@H]4N[C@@H]5CC[C@H]4C5)c(F)c3)cc21 |  | 0.49 |  |  |  |  |  |  | 0.62 |  | 0.94 | -1 | 0.56 | -0.72 | 0.43 | 0.5 | 0.85 | 0.72 | 0.86 |  | Growth Rate (HEK-293T; 12 h, replicate number 1): 0.89; Growth Rate (HEK-293T; 12 h, replicate number 2): 0.82; Growth Rate (HEK-293T; 18 h, replicate number 2): 0.88; Growth Rate (HEK-293T; 24 h, replicate number 1): 0.87; Growth Rate (HEK-293T; 24 h, replicate number 2): 0.95; Growth Rate (Fibroblast; 12 h, replicate number 1): 0.65 |
| Cc1nnc2n1-c1sc3c(c1C(c1ccccc1Cl)=NC2)C[C@H](C(=O)N1CCOCC1)C3 |  | 0.8 |  |  | 0.83 |  | 0.93 | 0.94 | -0.2 | -0.35 |  |  |  | -0.71 | 0.19 | 0.64 | 0.94 |  |  |  | Growth Rate (U2OS; 24 h, replicate number 2): 0.93; Growth Rate (HEK-293T; 6 h, replicate number 1): 0.78 |
| C=C[C@@]12CCc3cc(O)ccc3[C@H]1CC[C@@]1(C)[C@H]2CC[C@@H]1O | 0.1 | 0.77 | 0.96 | 0.99 | 0.95 |  | 0.93 |  | 0.4 | -0.37 |  | -1 | 0.24 | 0.88 | 0.29 | 0.95 | 0.71 | 0.92 | 0.83 |  | Growth Rate (U2OS; 24 h, replicate number 2): 0.91; Growth Rate (Fibroblast; 12 h, replicate number 1): 0.86 |
| CO[C@H](C)CN1CC[C@@]2(C)c3ccc(O)cc3C[C@@H]1C2(C)C.Cl |  | 0.63 | 0.94 | 0.93 | 0.77 | 0.87 |  | 0.87 | 0.75 | 0.63 |  |  | 0.46 | 0.74 |  |  |  | 0.79 | 0.96 | 0.54 | Growth Rate (U2OS; 0 h, replicate number 2): 0.71; Growth Rate (U2OS; 24 h, replicate number 2): 0.82; Growth Rate (Fibroblast; 12 h, replicate number 1): 0.6 |
| COCCN(C)c1ccc(NC(=O)/C=C(\C)c2ccc3ccccc3c2)c(C(=O)O)c1 | 0.79 | 0.9 |  | 0.72 | 0.92 | 0.88 |  | 0.91 | 0.87 | -0.37 |  |  |  |  |  |  |  |  |  | -0.29 |  |
| CC(C)(c1ccc(OCc2cccc(COc3ccc(C(=N)N)cc3)c2)cc1)c1ccc(O[C@@H]2O[C@H](C(=O)O)[C@@H](O)[C@H](O)[C@H]2O)cc1.O=C(O)C(F)(F)F | 0.36 | 0.61 | 0.56 | 0.97 | 0.68 | -0.41 | 0.89 |  | 0.51 | -0.08 | 0.87 | -1 | 0.34 |  |  |  | 0.92 |  | 0.88 |  | Growth Rate (U2OS; 0 h, replicate number 2): -0.17; Growth Rate (HEK-293T; 24 h, replicate number 1): 1 |
| CC(F)(F)CN1C(=O)c2[nH]nc(-c3cccc4[nH]c(=O)oc34)c2C1c1ccc(Oc2cc(C(F)(F)F)cc(C(F)(F)F)c2)cc1 (centres undefined) |  |  |  |  |  |  |  | 0.88 | 0.14 | -0.56 | 0.83 |  | 0.84 |  |  |  |  | 0.98 | 0.96 | -0.97 | Growth Rate (HEK-293T; 12 h, replicate number 2): 0.76; Growth Rate (HEK-293T; 18 h, replicate number 2): 0.68; Growth Rate (HEK-293T; 24 h, replicate number 1): 0.78; Growth Rate (HEK-293T; 24 h, replicate number 2): 0.75 |
| C/C(=C\C(=O)Nc1ccccc1C(=O)[O-])c1ccc2ccccc2c1.[Na+] | 0.38 | 0.69 |  | 0.95 |  | 0.83 |  | 0.94 | 0.79 | 0.69 |  |  | 0.57 | -0.21 | 0.94 |  |  | 0.97 | 0.83 | -0.44 |  |
| Cc1nnc2n1-c1sc3c(c1C(c1ccccc1Cl)=NC2)C[C@@H](C(=O)N1CCOCC1)C3 | 0.65 | 0.49 |  | 0.84 |  |  |  |  | -0.21 | -0.7 |  |  |  |  | 0.81 |  | 0.86 |  |  |  |  |
| N=C(N)NCCC[C@H](NC(=O)C(c1ccccc1)c1ccccc1)C(=O)NCc1ccc(CNC(N)=O)cc1.O=C(O)C(F)(F)F |  | 0.97 |  |  | 0.88 |  |  | 0.96 | 0.26 |  |  | -1 |  | -0.57 | 0.52 | 0.75 | 0.58 |  | 0.9 |  |  |
| N=C(N)NCCC[C@@H](NC(=O)C(c1ccccc1)c1ccccc1)C(=O)NCc1ccc(CNC(N)=O)cc1.O=C(O)C(F)(F)F | 0.07 | 0.44 |  | 0.7 | 0.87 | 0.92 | 0.99 | 0.86 | 0.56 |  |  | -1 | 0.82 |  | 0.86 | 0.94 | 0.91 |  |  | 0.49 | Growth Rate (HEK-293T; 12 h, replicate number 2): 0.76; Growth Rate (HEK-293T; 18 h, replicate number 2): 0.96; Growth Rate (HEK-293T; 24 h, replicate number 2): 0.9 |
